Measured values as given in patent publication US6528618B1, “Anti-inflammatory peptides derived from C-reactive protein” (Yeda Research and Development Co. Ltd., priority 1997, dated 2003).
“Also recorded” adds a separate entry of the source. Where a SMILES comes first, the peptide text is derived from it.

Legend:
[1] = molecular target: T1, human leukocyte elastase (hLE) (Homo sapiens, UniProt P08246); experiment: In vitro inhibition of hLE (cleavage of MeOSuc-AAPV-NA); type: biochemical; conditions: for Ki: hLE Ki [μM], Table 2, substrate MeOSuc-AAPV-NA 200 μM, pH 7.4, 37 C
T1 construct: Neutrophils (1.4 billion) were isolated from whole blood obtained from a single healthy laboratory donor; from tissue; host or cells: neutrophils from whole blood of a single healthy donor
T1 sequence (P08246 30-247 limits assumed): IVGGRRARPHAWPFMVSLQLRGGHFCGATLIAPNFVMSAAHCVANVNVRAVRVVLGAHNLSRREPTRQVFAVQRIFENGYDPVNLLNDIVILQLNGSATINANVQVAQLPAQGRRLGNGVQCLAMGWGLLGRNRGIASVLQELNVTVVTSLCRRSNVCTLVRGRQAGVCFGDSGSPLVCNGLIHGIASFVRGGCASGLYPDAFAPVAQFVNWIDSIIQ
Procedure: (§1) The enzymatic activity was assayed with MeOSuc-AAPV-NA for hLE determination and Suc-AAPF-NA for hCG determination (both in 100 mM Hepes buffer, pH 7.4, containing 0.05% of the […] detergent Brij-35). The activities of the individual enzymatic fractions were 100% free from cross-contamination. […] The fractions containing hLE and hCG were dialyzed each against 0.1% pyridinium acetate, pH 5.3, divided into 20 aliquots, lyophilized, and stored at −20 ° C. until use.
(v) Inhibition experiments with hLE: Peptides were dissolved in 100 mM Hepes buffer pH 7.4 containing 0.1% Brij-35 with 10%. DMSO to yield 300 μM solutions, which were used to make further dilutions with the same buffer, and 80 μL aliquots were added in duplicates to 96-well plates. The substrate, 600 μM MeOSuc-AAPV-NA in the same buffer with 5% DMSO, was added to each well in addition to the blank wells, and the plate was placed in the plate reader equilibrated to 37 C (Dynateck MR-6000). Lyophilized aliquots of hLE were dissolved in 1600 μL of 100 mM Hepes buffer without DMSO, and 80 μL of the enzyme solution was added to the peptides and substrate to initiate the reaction. […] The final volume was 240 μL containing: 5% DMSO, 1-100 μM of peptide, 200 μM substrate, and 0.75 μg (˜25 picomol) enzyme.
(viii) Calculations: For hLE, V is determined by fitting a linear equation to the first 6 time-points (10 min) of the kinetics data using the least squares method. […] Several inhibitor concentration in duplicates and two control wells were used to fit a linear equation to graphs of Vo/Vi−1 vs. [I] for each inhibitor using the least squares method (8 data points for each inhibitor). From calculating the error in the slope of the equation, the relative error for Ki was deduced:
Ki={slope*(1+[S]/Km)}^−1because Ki=[I]*{(1+[S]/Km)*(Vo/Vi−1)}^−1.
(§2) The hLE inhibitory capability of CRP-derived peptides was evaluated by inhibiting the enzymatic cleavage of MeOSuc-AAPV-NA as described in Materials and Methods (section v).

[2] = molecular target: T2, human leukocyte cathepsin G (hCG) (Homo sapiens, UniProt P08311); experiment: In vitro inhibition of hCG (cleavage of Suc-AAPF-NA); type: biochemical; conditions: for Ki: hCG Ki [μM], Table 2, substrate Suc-AAPF-NA 600 μM, pH 7.4
T2 construct: Neutrophils (1.4 billion) were isolated from whole blood obtained from a single healthy laboratory donor; from tissue; host or cells: neutrophils from whole blood of a single healthy donor
T2 sequence (P08311 21-243 limits assumed): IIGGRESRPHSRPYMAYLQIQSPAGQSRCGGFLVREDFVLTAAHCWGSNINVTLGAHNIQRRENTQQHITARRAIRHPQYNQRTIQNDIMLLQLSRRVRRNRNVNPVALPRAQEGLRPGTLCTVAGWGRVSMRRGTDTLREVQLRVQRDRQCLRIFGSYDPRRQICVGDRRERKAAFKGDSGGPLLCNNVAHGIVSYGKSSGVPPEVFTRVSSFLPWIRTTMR
Procedure: as §1
(§3) vi) Inhibition experiments with hCG: Similar conditions to hLE inhibition experiments were used except the substrate: 80 μL of 1.80 mM Suc-AAPF-NA. The enzyme was dissolved in 800 μL buffer, and the reaction was monitored every 6 min for 1 hour. The final volume was 240 μL containing: 5% DMSO, 1-100 μM peptide, 600 μM substrate, and 1.2 μg enzyme (about 40 picomol).
For hCG, V is determined by fitting a quadratic equation to the total kinetic data (60 min), using the least squares method and calculating V at t=0.
The hCG inhibitory capability of CRP-derived peptides was evaluated by inhibiting the enzymatic cleavage of Suc-AAPF-NA as described in Materials and Methods (section vi).

[3] = molecular target: T3, human leukocyte cathepsin G (human, UniProt P08311 21-244); experiment: hCG enzyme inhibition kinetics, cleavage of Suc-AAPF-NA
T3 construct: mature; Active enzyme purified from human neutrophils; also called hCG; human Cathepsin G
T3 sequence (looked up): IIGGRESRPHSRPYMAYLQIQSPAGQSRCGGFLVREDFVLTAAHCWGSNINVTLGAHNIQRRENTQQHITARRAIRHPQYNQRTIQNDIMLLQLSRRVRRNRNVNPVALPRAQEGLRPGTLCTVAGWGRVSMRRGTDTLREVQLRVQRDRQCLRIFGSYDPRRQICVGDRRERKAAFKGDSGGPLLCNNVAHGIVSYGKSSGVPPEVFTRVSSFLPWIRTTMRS
Procedure: (§4) (v) Inhibition experiments with hLE: Peptides were dissolved in 100 mM Hepes buffer pH 7.4 containing 0.1% Brij-35 with 10%. DMSO to yield 300 µM solutions, which were used to make further dilutions with the same buffer, and 80 µL aliquots were added in duplicates to 96-well plates. The substrate, 600 µM MeOSuc-AAPV-NA in the same buffer with 5% DMSO, was added to each well in addition to the blank wells, and the plate was placed in the plate reader equilibrated to 37 C (Dynateck MR-6000). Lyophilized aliquots of hLE were dissolved in 1600 µL of 100 mM Hepes buffer without DMSO, and 80 µL of the enzyme solution was added to the peptides and substrate to initiate the reaction. The kinetics program read the plate at 405 nm every 2 min for 20 min (with a 3 sec shaking period between readings), and plotted the results as well as the average of each duplicate. The final volume was 240 µL containing: 5% DMSO, 1–100 µM of peptide, 200 µM substrate, and 0.75 µg (~25 picomol) enzyme.
as §3, with “µL” for “μL”, “1–100 µM” for “1-100 μM”, “µM” for “μM”, “µg” for “μg”

human leukocyte elastase [4] = molecular target: T4, human leukocyte elastase (human, UniProt P08246 30-267); experiment: hLE enzyme inhibition kinetics, cleavage of MeOSuc-AAPV-NA
T4 construct: mature; Active enzyme purified from human neutrophils; also called hLE
T4 sequence (looked up): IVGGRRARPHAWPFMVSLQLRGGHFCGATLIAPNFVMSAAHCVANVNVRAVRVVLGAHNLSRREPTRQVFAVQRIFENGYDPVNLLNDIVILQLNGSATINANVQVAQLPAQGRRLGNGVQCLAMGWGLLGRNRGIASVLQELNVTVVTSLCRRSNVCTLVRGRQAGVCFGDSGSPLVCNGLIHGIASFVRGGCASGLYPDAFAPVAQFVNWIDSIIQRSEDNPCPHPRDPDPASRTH
Procedure: as §4, §2

human leukocyte elastase [5] = molecular target: T4, human leukocyte elastase; experiment: as above; remark: listed apart in the source
Procedure: as §4, §2

`CC[C@H](C)[C@H](NC(=O)[C@H](CC(=O)O)NC(=O)[C@H](CCCCN)NC(=O)[C@H](CO)NC(=O)[C@H](Cc1c[nH]c2ccccc12)NC(=O)[C@H](Cc1ccccc1)NC(=O)[C@@H](NC(=O)[C@H](CC(C)C)NC(=O)[C@@H](NC(=O)[C@H](CCC(=O)O)NC(=O)[C@H](CC(N)=O)NC(=O)[C@H](CC(=O)O)NC(=O)[C@H](CCC(N)=O)NC(=O)[C@H](CCCNC(=N)N)NC(=O)[C@H](CCCCN)NC(=O)[C@@H](NC(=O)[C@H](C)N)[C@@H](C)O)[C@@H](C)CC)[C@@H](C)CC)C(=O)NCC(=O)N[C@@H](Cc1ccc(O)cc1)C(=O)N[C@@H](CO)C(=O)N[C@@H](Cc1ccccc1)C(=O)N[C@H](C(=O)N[C@H](C(=O)NCC(=O)NCC(=O)N[C@@H](CO)C(=O)N[C@@H](CCC(=O)O)C(=O)N[C@H](C(=O)N[C@@H](CC(C)C)C(=O)O)[C@@H](C)CC)C(C)C)[C@@H](C)O` [Peptide 17] (H-ATKRQDNEILIFWSKDIGYSFTVGGSEIL-OH; N-terminus and C-terminus assumed) was tested, and the “hLE inhibitory activity (in words)” value [1] was “reduced inhibitory activity; also recorded: reduction of inhibitory activity”, the “hCG inhibitory activity (in words)” value [2] was “reduction of inhibitory activity” and the Ki [2] was 5.5 ± 1 µM.

In the case of `CC[C@H](C)[C@H](NC(=O)[C@H](CC(=O)O)NC(=O)[C@H](CCCN)NC(=O)[C@H](CO)NC(=O)[C@H](Cc1c[nH]c2ccccc12)NC(=O)[C@H](Cc1ccccc1)NC(=O)[C@@H](NC(=O)[C@H](CC(C)C)NC(=O)[C@@H](NC(=O)[C@@H](N)CCC(=O)O)[C@@H](C)CC)[C@@H](C)CC)C(=O)NCC(=O)N[C@@H](Cc1ccc(O)cc1)C(=O)N[C@@H](CO)C(=O)N[C@@H](Cc1ccccc1)C(=O)N[C@H](C(=O)O)[C@@H](C)O` [Peptide 20, Glu-Ile-Leu-Ile-Phe-Trp-Ser-Orn-Asp-Ile-Gly-Tyr-Ser-Phe-Thr] (HELM PEPTIDE1{E.I.L.I.F.W.S.[Orn].D.I.G.Y.S.F.T}$$$$V2.0; N-terminus and C-terminus assumed), the “hLE inhibitory activity (in words)” value [1] is reported as “retained the same level of inhibitory activity as peptide 6”, the Ki [1] is reported as 0.25 ± 0.1 µM and the Ki [2] is reported as 0.25 ± 0.05 µM.

In the case of `CC[C@H](C)[C@H](NC(=O)[C@H](CC(=O)O)NC(=O)[C@H](CCN)NC(=O)[C@H](CO)NC(=O)[C@H](Cc1c[nH]c2ccccc12)NC(=O)[C@H](Cc1ccccc1)NC(=O)[C@@H](NC(=O)[C@H](CC(C)C)NC(=O)[C@@H](NC(=O)[C@@H](N)CCC(=O)O)[C@@H](C)CC)[C@@H](C)CC)C(=O)NCC(=O)N[C@@H](Cc1ccc(O)cc1)C(=O)N[C@@H](CO)C(=O)N[C@@H](Cc1ccccc1)C(=O)N[C@H](C(=O)O)[C@@H](C)O` [Peptide 21, Glu-Ile-Leu-Ile-Phe-Trp-Ser-DAB-Asp-Ile-Gly-Tyr-Ser-Phe-Thr] (HELM PEPTIDE1{E.I.L.I.F.W.S.[Dab].D.I.G.Y.S.F.T}$$$$V2.0; N-terminus and C-terminus assumed), the “hLE inhibitory activity (in words)” value [1] is reported as “retained the same level of inhibitory activity as peptide 6”, the Ki [1] is reported as 0.2 ± 0.05 µM and the Ki [2] is reported as 0.85 ± 0.35 µM.

In the case of `CC[C@H](C)[C@H](NC(=O)[C@H](C)NC(=O)[C@H](CCCCN)NC(=O)[C@H](CO)NC(=O)[C@H](Cc1c[nH]c2ccccc12)NC(=O)[C@H](Cc1ccccc1)NC(=O)[C@@H](NC(=O)[C@H](CC(C)C)NC(=O)[C@@H](NC(=O)[C@@H](N)CCC(=O)O)[C@@H](C)CC)[C@@H](C)CC)C(=O)NCC(=O)N[C@@H](Cc1ccc(O)cc1)C(=O)N[C@@H](CO)C(=O)N[C@@H](Cc1ccccc1)C(=O)N[C@H](C(=O)O)[C@@H](C)O` [Peptide 22, Glu-Ile-Leu-Ile-Phe-Trp-Ser-Lys-Ala-Ile-Gly-Tyr-Ser-Phe-Thr] (H-EILIFWSKAIGYSFT-OH; N-terminus and C-terminus assumed), the “hLE inhibitory activity (in words)” value [1] is reported as “large decrease in inhibition capacity”, the Ki [1] is reported as 3 ± 0.6 µM and the Ki [2] is reported as 5.5 ± 1.5 µM.

In the case of `CC[C@H](C)[C@H](NC(=O)[C@H](CCC(=O)O)NC(=O)[C@H](CCCCN)NC(=O)[C@H](CO)NC(=O)[C@H](Cc1c[nH]c2ccccc12)NC(=O)[C@H](Cc1ccccc1)NC(=O)[C@@H](NC(=O)[C@H](CC(C)C)NC(=O)[C@@H](NC(=O)[C@@H](N)CCC(=O)O)[C@@H](C)CC)[C@@H](C)CC)C(=O)NCC(=O)N[C@@H](Cc1ccc(O)cc1)C(=O)N[C@@H](CO)C(=O)N[C@@H](Cc1ccccc1)C(=O)N[C@H](C(=O)O)[C@@H](C)O` [Peptide 23, Glu-Ile-Leu-Ile-Phe-Trp-Ser-Lys-Glu-Ile-Gly-Tyr-Ser-Phe-Thr] (H-EILIFWSKEIGYSFT-OH; N-terminus and C-terminus assumed), the “hLE inhibitory activity (in words)” value [1] is reported as “small decrease in inhibitory activity” and the Ki [2] is reported as 0.85 ± 0.25 µM.

B1: peptide 19 (peptide)
peptide: EILIFWPKDIGYSFT
notes: Analog of peptide 6 (CRP62-76) with Ser68 replaced by Pro
B1 was tested, and the Ki [3] was 30000 nM.

B2: peptide 23 (peptide)
peptide: EILIFWSKEIGYSFT
notes: Analog of peptide 6 (CRP62-76) with Asp70 replaced by Glu; also called pep23
For B2, the Ki (human leukocyte elastase [4]) was 550 nM.

B3: peptide 26 (peptide)
peptide: EILIFWSVDI
notes: 10-mer analog of peptide 14 (CRP62-71) with Lys69 replaced by Val; also called pep26
B3 showed a Ki (human leukocyte elastase [4]) of 2000 nM.

For ATKRQDNEILIFWSKDIGYSFTVGGSEIL (Synthetic 29-mer) [peptide 17 (CRP55-83)], the Ki (human leukocyte elastase [4]) was 7300 nM.

With TFSYGIDKSWFILIE [peptide 24 (reverse sequence of peptide 6)] the Ki (human leukocyte elastase [4]) was 10000 nM and the “fold less active against peptide 6” value (human leukocyte elastase [5]) was 30 fold.
